Square brackets hold non-standard residues; d marks the D form. Ends that are not written are not given here. Cit = NC(=O)NCCC[C@H](N)C(=O)O
Legend:
splenocytes [1] = assay: Peptide immunisation and ex vivo Elispot, DP4 mice; type: in vivo, HHD/HLA-DP4 transgenic mouse
Procedure: (§1) C57BL/6 mice (Charles River, UK), HLA-DR4 mice (Taconic, USA), HHDII/DR1 mice (Pasteur institute, France) and the HHD/HLA-DP4 transgenic strain of mouse as described in patent WO2013/017545 A1 (EMMA repository, France) were used, aged between 8 and 12 weeks, and cared for by the staff at Nottingham Trent University. All work was carried out under a Home Office project licence. Peptides were dissolved in PBS to 1 mg/ml and then emulsified (a series of dilutions) with different adjuvants: CpG and MPLA 6 μg/mouse of each (Invivogen, UK), Incomplete Freund's 50 μl/mouse (Sigma, UK), poly I:C 10 μg/mouse (Invivogen, UK), Imiquimod 25 μg/mouse (Invivogen, UK) and GMCSF 10 μg/mouse (Peprotech, UK). Peptides (25 μg/mouse) were injected subcutaneously at the base of the tail. DNA (1 μg/mouse) was coated onto 1.0 μm gold particles (BioRad, Hemel Hempstead, UK) using the manufacturer's instructions and administered intradermally by genegun (BioRad). Homspera (10 nM/mouse) (PeptideSynthetics, UK) was injected intradermally with genegun immunisation. Mice were immunized at either day 0 for peptide immunisation or days, 0 and 7 for genegun immunisation, unless otherwise stated. Spleens were removed for analysis at day 14 for peptide and day 20 for peptide or genegun immunisation unless stated otherwise.
Elispot assays were performed using murine IFNγ, IL-17 and IL-10 capture and detection reagents according to the manufacturer's instructions (Mabtech, Sweden). In brief, anti-IFNγ, IL-17 and IL-10 antibodies were coated onto wells of 96-well Immobilin-P plate. Synthetic peptides (at a variety of concentrations) and 5×10^5 per well splenocytes were added to the wells of the plate in triplicate. Tumour target cells were added where relevant at 5×10^4/well in triplicate and plates incubated for 40 hrs at 37° C. After incubation, captured IFN and IL-10 were detected by biotinylated anti-IFNγ and IL-10 antibodies and developed with a streptavidin alkaline phosphatase and chromogenic substrate. Spots were analysed and counted using an automated plate reader (Cellular Technologies Ltd).

B16DR4 tumour = assay: B16DR4 melanoma tumour challenge; type: in vivo, DR4 mice
Procedure: as §1
For tumour challenge experiments mice were challenged with 2.5×10^4 B16 DR4 cells or 1×10^6 LLC2/LLC2 DR4 cells, 2.5×10^5 Pan02 DR4 cells in matrigel or 4×10^5 B16 HHDII DP4 cells subcutaneously on the right flank 3 days prior to primary immunisation and then were immunised as above. Tumour growth was monitored at 3-4 days intervals and mice were humanely euthanized once tumour reached ≥10 mm in diameter.

B16iDR4 = assay: B16 tumour with IFNγ inducible DR4 (B16iDR4) challenge; type: in vivo, DR4 mice
Procedure: as §1
For tumour challenge experiments mice were challenged with 2.5×10^4 B16 DR4 cells or 1×10^6 LLC2/LLC2 DR4 cells, 2.5×10^5 Pan02 DR4 cells in matrigel or […] above. Tumour growth was monitored at 3-4 days intervals and mice were humanely euthanized once tumour reached ≥10 mm in diameter.

LLCDR4 tumour = assay: Lewis lung carcinoma LLC2 with constitutive DR4 (LLCDR4) challenge; type: in vivo, DR4 mice; details: challenge four days before peptide immunisation; all controls died by day 48
Procedure: as §1, with “Mice were immunized at either day 0 for peptide immunisation or days, 0 and 7 for genegun immunisation, unless otherwise stated. Spleens were removed for analysis at day 14 for peptide and day 20 for peptide or genegun immunisation unless stated otherwise.” left out
(§2) For tumour challenge experiments mice were challenged with 2.5×10^4 B16 DR4 cells or 1×10^6 LLC2/LLC2 DR4 cells, […] above. Tumour growth was monitored at 3-4 days intervals and mice were humanely euthanized once tumour reached ≥10 mm in diameter.

parental LLC2 tumour = assay: Parental Lewis lung carcinoma LLC2 challenge; type: in vivo, DR4 mice; details: challenge four days before peptide immunisation
Procedure: as §1, with “Mice were immunized at either day 0 for peptide immunisation or days, 0 and 7 for genegun immunisation, unless otherwise stated. Spleens were removed for analysis at day 14 for peptide and day 20 for peptide or genegun immunisation unless stated otherwise.” left out
as §2

PBMCs [2] = assay: Thymidine proliferation assay on healthy donor PBMCs; type: cell-based, human; details: for healthy donors showing a proliferative response: PBMCs from 6 healthy donors, peptide 10 μg/ml, days 4, 7, 11
Procedure: PBMC were isolated from freshly drawn heparinised blood by Ficol-Hypaque (Sigma) gradient centrifugation. PBMC (1.5×10^6 cells/well) were stimulated with single peptides (final concentration 10 μg/ml) in RPMI containing 5% pooled autologous human serum, 2 mM glutamine, 20 mM HEPES and Penicillin-streptomycin (1%) in a final volume of 2 ml. Stimulation with purified protein derivative, PPD (final concentration 10 μg/ml) served as a positive control for the proliferative capacity of PBMC. As a negative control PBMC were incubated with medium alone. The PBMC were cultured at 37° C. in an atmosphere of 5% CO2 for 4, 7 and 11 days. To assess proliferation at these times points 100 μl in triplicate from each culture was aliquoted into a round bottom well of a 96 well plate and 3H-thymidine added (0.0185 MBq/well) and incubated at 37° C. for a further 8 hours. The cultures were harvested onto unifilter plates and incorporation of ^3H-thymidine was determined by β-scintillation counting. The results were assessed by calculating the stimulation index (SI) as the ratio of the mean of counts per minute (cpm) of epitope-stimulated to the mean of unstimulated cultures. The proliferative assay was considered positive when SI >2.5.

PBMCs [3] = assay: CFSE proliferation assay on PBMCs; type: cell-based, human; details: Donor 4, day 10
Procedure: PBMC were isolated from freshly drawn heparinised blood by Ficol-Hypaque (Sigma) gradient centrifugation. PBMC (1.5×10^6 cells/well) were stimulated with single peptides (final concentration 10 μg/ml) in RPMI containing 5% pooled autologous human serum, 2 mM glutamine, 20 mM HEPES and Penicillin-streptomycin (1%) in a final volume of 2 ml. As a negative control PBMC were incubated with medium alone. The PBMC were cultured at 37° C. in an atmosphere of 5% CO2 for 7 and 10 days. To assess proliferation at these times points cells were sampled and stained with surface marker CD4 and CD8 antibodies labelled with PE-Cy5 and efluor 450 respectively. After staining cells were fixed and analysed on a Milteny MACSQuant flow cytometer.

splenocytes [4] = assay: Peptide immunisation and ex vivo Elispot, DP4 mice; type: in vivo, HHD/HLA-DP4 transgenic mouse; details: DP4 mice immunised with human 241-260cit
[5] = DP4 mice immunised with human 241-260cit

**Q.** For “VIGMDVAASEFF-CIT-SGKYDLD (VIGMDVAASEFF[Cit]SGKYDLD; listed as Homo sapiens) [Enolase 241cit]”, which “IFNγ response in presence of CD4 blocking antibody” value (splenocytes [1]; [5]) is on record?
**A.** blocked

**Q.** What about the “IFNγ response in presence of CD8 blocking antibody” value (splenocytes [1]; [5]) of the same substance?
**A.** not

**Q.** And the “IFNγ response to shorter peptide spanning aa241-255” value (splenocytes [1]; [5])?
**A.** show cross reactivity

**Q.** And the “IL-10 in response to the cit peptide” value (splenocytes [1]; [5])?
**A.** no IL-10

**Q.** What about the “IFNγ response compared to the wild type peptides” value (splenocytes [1]; DP4 mice, three doses of human Enolase 241cit, label = restimulating peptide) of the same substance?
**A.** increased IFNγ responses

**Q.** And the “IFNγ response in combination with imiquimod” value (splenocytes [1]; DP4 transgenic mice)?
**A.** induces IFNγ responses

**Q.** What about the “IFNγ response in combination with poly I:C” value (splenocytes [1]; DP4 transgenic mice) of the same substance?
**A.** induces IFNγ responses

**Q.** What about the “IL-10 response in combination with poly I:C” value (splenocytes [1]; DP4 transgenic mice) of the same substance?
**A.** no IL-10

**Q.** And the “animals surviving at day 45” value (B16DR4 tumour; B16DR4 challenge, three doses of 5 μg in GM-CSF over three weeks, control 0% by day 28)?
**A.** 70%

**Q.** And the “tumour volume, median, day 17 post tumour implant” value (B16DR4 tumour; peptide immunisation after B16DR4 implant, control median 49 mm^3)?
**A.** 0 mm^3

**Q.** And the “survival after 45 days” value (B16DR4 tumour; peptide immunisation after B16DR4 implant, unimmunised 15%)?
**A.** 50%

**Q.** What about the “survival at day 42” value (B16iDR4; challenge 4 days prior to peptide immunisation, control 0%) of the same substance?
**A.** 90%

**Q.** What about the “tumour volume, median, day 17 post tumour implant” value (B16iDR4; challenge 4 days prior to peptide immunisation, control median 65 mm^3) of the same substance?
**A.** 0 mm^3

**Q.** And the “survival 39 days after rechallenge” value (B16iDR4; immunised survivors rechallenged with B16iDR4 at day 42, all controls dead by day 29)?
**A.** 67%

**Q.** What about the “mice surviving to day 58” value (LLCDR4 tumour) of the same substance?
**A.** 40%

**Q.** And the “survival time versus unimmunised control” value (parental LLC2 tumour)?
**A.** small but significant increase in survival time

**Q.** And the “proliferation index, mean” value (PBMCs [2]; Donor 1, day 4)?
**A.** 0.8

**Q.** And the “proliferation index, mean” value (PBMCs [2]; Donor 1, day 7)?
**A.** 28.6

**Q.** What about the “proliferation index, mean” value (PBMCs [2]; Donor 1, day 11) of the same substance?
**A.** 20.4

**Q.** And the “proliferation index, mean” value (PBMCs [2]; Donor 2, day 11)?
**A.** 2.7

**Q.** And the “proliferation index, mean” value (PBMCs [2]; Donor 4, day 4)?
**A.** 12.5

**Q.** What about the “proliferation index, mean” value (PBMCs [2]; Donor 4, day 7) of the same substance?
**A.** 28

**Q.** What about the proliferation index (PBMCs [2]; Donor 4, day 11) of the same substance?
**A.** 4.4

**Q.** What about the proliferative response (PBMCs [2]; Donor 6) of the same substance?
**A.** non-responder

**Q.** And the “healthy donors showing a proliferative response” value (PBMCs [2])?
**A.** 5/6

**Q.** What about the “healthy donors showing a proliferative response” value (PBMCs [2]; listed as Enolase 241-260 citrullinated at position 253) of the same substance?
**A.** 4/6

**Q.** What about the “lymphocytes that are CFSE^lowCD4^+” value (PBMCs [3]) of the same substance?
**A.** 15%

**Q.** And the “granzyme B release in response to the cit peptide” value (splenocytes [4])?
**A.** show granzyme B release

— patent US11382985B2, “Anti-tumour immune responses to modified self-epitopes” (Scancell Limited, priority 2015, dated 2022)
